Results as given in patent EP3839043A1, “SCREENING METHODS FOR COMPOUNDS MODULATING POLYAMINE TRANSPORT” (Katholieke Universiteit Leuven, priority 2019, dated 2021).

Key:
cathepsin B (CTSB) = settings: toxic SPM levels (10 µM, 4 h)
Protocol: (§1) Cathepsin activity assays - SH-SY5Y cells were seeded in 10 cm^2 plates (2 X 10^6 cells per plate) and allowed to adhere overnight prior to treatment with 10 µM SPM for 4 h at 37°C. For samples requiring acidic nanoparticle addition, 180 ng/ml nanoparticles were added 1 h prior to SPM addition. Next, the samples were harvested using TRYPLE and a brief centrifugation (300 x g; 5 min). CTSB (ab65300) and CTSD (ab65302) activities were assessed using commercially available kits (Abcam) according to the manufacturer's instructions. MFI were acquired using a FlexStation 3.0 multi-well plate reader (Molecular Devices).

cathepsin D (CTSD) = settings: toxic SPM levels (10 µM, 4 h)
Protocol: as §1

Question: What does the source list for NCCCNCCCCNCCCN [Spermine, spermine]?
Answer: cathepsin B (CTSB) activity (cathepsin B (CTSB)): increased; cathepsin D (CTSD) activity (cathepsin D (CTSD)): decreased
